We go through 36 compounds from ChEMBL document CHEMBL5291721, “A preclinical secondary pharmacology resource illuminates target-adverse drug reaction associations of marketed drugs” (Nat Commun, 2023).

The target in one assay is Histamine H1 receptor (Homo sapiens, UniProt P35367).
For assay [1], the target named is T1, Alpha-2B adrenergic receptor (Homo sapiens, UniProt P18089).
T1 sequence (P18089 whole entry): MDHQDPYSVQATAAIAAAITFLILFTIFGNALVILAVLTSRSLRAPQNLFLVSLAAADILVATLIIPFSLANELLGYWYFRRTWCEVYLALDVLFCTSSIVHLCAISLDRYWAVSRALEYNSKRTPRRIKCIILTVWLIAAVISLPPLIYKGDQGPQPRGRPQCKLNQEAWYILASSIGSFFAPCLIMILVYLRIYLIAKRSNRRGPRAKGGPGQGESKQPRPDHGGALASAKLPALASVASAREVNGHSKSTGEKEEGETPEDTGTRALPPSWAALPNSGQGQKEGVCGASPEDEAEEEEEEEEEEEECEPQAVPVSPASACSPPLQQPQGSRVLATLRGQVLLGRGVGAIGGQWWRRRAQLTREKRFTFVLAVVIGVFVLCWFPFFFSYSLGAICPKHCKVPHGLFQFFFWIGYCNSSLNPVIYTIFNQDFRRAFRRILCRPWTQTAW

Assay [2] addresses T2, 5-hydroxytryptamine receptor 2A (Homo sapiens, UniProt P28223). It counts as functional, cell-based.
Assay [3] deals with Gamma-aminobutyric acid receptor subunit alpha-1/alpha-2/beta-2/gamma-2 (Homo sapiens, UniProt P14867+P18507+P47869+P47870). In kind it is functional, cell-based.
Assay [4] deals with T2, 5-hydroxytryptamine receptor 2A. It counts as functional, cell-based. The source holds these as a separate data set.
Assay [5] deals with Muscarinic acetylcholine receptor M3 (Homo sapiens, UniProt P20309).
Another assay deals with T3, Androgen receptor (Homo sapiens, UniProt P10275).
T3 sequence (P10275 whole entry): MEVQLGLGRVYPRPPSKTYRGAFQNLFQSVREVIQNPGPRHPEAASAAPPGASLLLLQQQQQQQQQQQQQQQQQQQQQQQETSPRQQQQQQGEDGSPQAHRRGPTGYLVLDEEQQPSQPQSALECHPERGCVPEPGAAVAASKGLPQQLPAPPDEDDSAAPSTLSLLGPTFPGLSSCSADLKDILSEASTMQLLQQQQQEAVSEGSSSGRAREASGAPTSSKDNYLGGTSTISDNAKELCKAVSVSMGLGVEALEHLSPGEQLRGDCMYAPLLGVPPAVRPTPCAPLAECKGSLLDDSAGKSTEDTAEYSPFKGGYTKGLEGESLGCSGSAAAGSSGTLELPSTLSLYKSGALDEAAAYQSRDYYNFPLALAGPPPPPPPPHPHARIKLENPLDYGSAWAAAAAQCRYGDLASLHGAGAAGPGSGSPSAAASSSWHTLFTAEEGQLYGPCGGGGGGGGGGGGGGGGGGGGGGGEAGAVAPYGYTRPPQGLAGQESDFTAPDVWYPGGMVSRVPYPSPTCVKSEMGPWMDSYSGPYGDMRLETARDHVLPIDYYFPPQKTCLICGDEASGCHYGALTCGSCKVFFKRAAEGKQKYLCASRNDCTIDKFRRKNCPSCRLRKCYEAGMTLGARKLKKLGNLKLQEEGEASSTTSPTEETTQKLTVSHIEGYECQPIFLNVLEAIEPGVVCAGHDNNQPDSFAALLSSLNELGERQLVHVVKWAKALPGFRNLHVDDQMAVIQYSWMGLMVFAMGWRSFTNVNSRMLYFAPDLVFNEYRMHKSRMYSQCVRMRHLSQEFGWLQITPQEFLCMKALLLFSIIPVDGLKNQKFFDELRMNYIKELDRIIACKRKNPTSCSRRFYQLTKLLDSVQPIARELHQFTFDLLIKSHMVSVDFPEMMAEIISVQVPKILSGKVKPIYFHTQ

In assay [6] the target is T4, Neuropeptide Y receptor type 2 (Homo sapiens, UniProt P49146).
T4 sequence (P49146 whole entry): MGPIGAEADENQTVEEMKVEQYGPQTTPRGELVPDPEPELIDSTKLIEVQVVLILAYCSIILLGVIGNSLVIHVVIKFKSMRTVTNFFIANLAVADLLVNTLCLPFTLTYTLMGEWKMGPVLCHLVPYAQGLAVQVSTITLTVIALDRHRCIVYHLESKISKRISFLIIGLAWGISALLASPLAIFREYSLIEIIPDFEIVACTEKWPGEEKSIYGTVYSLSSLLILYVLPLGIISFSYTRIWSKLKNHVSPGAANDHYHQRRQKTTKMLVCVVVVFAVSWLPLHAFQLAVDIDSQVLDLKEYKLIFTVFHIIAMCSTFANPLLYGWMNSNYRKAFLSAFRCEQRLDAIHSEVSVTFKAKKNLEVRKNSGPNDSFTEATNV

Structures are written as SMILES.
Further: assay procedure not described here.

T2 sequence (P28223 whole entry): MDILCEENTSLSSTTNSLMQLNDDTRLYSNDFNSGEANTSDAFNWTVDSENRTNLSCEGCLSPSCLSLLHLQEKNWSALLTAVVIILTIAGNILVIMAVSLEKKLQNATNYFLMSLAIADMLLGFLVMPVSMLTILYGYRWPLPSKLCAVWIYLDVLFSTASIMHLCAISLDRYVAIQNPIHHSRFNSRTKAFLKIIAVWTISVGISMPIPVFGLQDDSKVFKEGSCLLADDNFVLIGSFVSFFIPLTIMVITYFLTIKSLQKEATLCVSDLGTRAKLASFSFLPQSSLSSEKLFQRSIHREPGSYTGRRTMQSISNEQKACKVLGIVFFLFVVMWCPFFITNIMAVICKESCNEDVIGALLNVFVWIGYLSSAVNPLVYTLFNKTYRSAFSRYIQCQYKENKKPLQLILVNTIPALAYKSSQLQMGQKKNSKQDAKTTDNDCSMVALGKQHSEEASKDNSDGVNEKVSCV
Sequence of Gamma-aminobutyric acid receptor subunit alpha-1/alpha-2/beta-2/gamma-2 (P14867 whole entry): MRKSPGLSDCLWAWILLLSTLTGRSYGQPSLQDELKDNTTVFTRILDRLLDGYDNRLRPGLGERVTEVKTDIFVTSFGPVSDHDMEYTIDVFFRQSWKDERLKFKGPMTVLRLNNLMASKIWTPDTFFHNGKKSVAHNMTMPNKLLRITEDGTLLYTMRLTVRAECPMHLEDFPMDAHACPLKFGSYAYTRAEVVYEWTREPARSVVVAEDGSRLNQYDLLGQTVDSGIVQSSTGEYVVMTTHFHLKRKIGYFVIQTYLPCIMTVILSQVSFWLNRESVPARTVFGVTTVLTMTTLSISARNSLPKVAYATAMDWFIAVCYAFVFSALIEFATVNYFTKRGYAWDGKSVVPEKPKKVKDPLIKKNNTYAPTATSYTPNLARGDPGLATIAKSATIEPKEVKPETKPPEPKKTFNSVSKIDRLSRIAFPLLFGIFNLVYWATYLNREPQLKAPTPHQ
Sequence of Gamma-aminobutyric acid receptor subunit alpha-1/alpha-2/beta-2/gamma-2 (P47870 whole entry): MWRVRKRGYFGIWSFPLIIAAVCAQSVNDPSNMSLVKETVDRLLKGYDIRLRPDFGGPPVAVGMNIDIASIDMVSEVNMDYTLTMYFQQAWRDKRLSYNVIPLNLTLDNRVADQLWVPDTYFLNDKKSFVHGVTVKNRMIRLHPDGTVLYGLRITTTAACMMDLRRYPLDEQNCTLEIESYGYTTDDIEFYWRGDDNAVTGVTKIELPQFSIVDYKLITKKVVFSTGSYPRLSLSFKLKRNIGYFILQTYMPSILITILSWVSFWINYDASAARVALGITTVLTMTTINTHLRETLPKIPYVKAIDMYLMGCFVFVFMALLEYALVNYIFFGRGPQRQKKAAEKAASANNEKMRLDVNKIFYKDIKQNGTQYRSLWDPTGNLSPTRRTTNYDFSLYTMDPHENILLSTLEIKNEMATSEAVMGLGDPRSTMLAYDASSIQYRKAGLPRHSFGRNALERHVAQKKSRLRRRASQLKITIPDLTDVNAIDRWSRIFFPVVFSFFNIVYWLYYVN
Sequence of Gamma-aminobutyric acid receptor subunit alpha-1/alpha-2/beta-2/gamma-2 (P18507 whole entry): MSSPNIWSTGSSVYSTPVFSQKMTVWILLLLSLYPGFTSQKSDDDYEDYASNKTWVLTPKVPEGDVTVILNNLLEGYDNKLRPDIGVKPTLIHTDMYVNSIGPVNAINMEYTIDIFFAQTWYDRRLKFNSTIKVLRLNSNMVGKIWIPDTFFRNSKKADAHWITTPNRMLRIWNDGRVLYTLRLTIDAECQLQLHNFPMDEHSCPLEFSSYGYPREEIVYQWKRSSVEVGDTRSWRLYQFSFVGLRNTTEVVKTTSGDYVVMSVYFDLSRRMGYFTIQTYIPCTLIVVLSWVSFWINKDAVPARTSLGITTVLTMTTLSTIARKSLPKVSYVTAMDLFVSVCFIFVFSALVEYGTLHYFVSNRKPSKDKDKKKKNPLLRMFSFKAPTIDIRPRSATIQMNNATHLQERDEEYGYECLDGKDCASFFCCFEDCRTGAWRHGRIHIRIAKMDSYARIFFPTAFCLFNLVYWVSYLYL
Sequence of Gamma-aminobutyric acid receptor subunit alpha-1/alpha-2/beta-2/gamma-2 (P47869 whole entry): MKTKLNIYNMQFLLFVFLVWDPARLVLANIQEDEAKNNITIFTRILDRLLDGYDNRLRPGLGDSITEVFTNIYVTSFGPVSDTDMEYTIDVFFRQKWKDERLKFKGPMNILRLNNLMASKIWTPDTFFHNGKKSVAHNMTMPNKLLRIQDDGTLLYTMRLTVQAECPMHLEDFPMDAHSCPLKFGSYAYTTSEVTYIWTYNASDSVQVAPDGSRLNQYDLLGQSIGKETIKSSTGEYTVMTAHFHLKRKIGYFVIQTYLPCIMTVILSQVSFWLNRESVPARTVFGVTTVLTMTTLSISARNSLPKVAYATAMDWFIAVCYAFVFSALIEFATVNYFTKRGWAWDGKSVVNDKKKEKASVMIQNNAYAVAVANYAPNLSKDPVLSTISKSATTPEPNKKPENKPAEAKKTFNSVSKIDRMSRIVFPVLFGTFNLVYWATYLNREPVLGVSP
Sequence of Histamine H1 receptor (P35367 whole entry): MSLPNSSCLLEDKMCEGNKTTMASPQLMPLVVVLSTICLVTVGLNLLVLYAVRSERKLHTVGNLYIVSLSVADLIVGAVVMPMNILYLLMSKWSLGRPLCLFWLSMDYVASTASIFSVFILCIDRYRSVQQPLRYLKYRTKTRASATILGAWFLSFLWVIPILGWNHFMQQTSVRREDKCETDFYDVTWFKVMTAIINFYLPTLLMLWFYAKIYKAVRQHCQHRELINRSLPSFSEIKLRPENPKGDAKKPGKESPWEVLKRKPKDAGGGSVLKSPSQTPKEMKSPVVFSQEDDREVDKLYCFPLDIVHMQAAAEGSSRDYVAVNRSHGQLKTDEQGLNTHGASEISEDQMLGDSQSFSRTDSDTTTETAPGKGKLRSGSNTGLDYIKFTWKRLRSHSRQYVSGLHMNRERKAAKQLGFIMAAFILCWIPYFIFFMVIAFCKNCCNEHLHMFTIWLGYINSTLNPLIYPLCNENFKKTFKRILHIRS
Sequence of Muscarinic acetylcholine receptor M3 (P20309 whole entry): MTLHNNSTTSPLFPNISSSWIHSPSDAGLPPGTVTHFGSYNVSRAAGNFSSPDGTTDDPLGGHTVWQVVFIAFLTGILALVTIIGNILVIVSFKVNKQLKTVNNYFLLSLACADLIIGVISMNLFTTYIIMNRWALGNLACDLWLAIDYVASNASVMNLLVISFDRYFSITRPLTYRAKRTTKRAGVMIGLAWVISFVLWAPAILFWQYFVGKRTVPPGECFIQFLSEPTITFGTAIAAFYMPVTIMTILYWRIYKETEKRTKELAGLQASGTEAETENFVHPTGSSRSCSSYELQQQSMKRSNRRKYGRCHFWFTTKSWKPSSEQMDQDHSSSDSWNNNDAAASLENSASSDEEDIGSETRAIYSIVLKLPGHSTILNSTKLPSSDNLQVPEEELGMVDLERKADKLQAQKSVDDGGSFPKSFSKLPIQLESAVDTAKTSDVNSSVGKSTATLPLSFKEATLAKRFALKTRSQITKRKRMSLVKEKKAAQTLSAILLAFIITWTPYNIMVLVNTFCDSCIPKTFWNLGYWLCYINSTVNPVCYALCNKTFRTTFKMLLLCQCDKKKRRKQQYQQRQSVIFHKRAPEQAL

As to `C[C@@H](NCCCc1cccc(C(F)(F)F)c1)c1cccc2ccccc12`, the AC50 (usually the concentration at which the activity in the assay is half-maximal) was 16 µM on Histamine H1 receptor; above 30 µM in assay [1]; above 30 µM in assay [2]; above 30 µM in assay [3]; above 30 µM in assay [4]; 14 µM in assay [5].
Regarding `COc1ccc(CC2c3cc(OC)c(OC)cc3CC[N+]2(C)CCC(=O)OCCCCCOC(=O)CC[N+]2(C)CCc3cc(OC)c(OC)cc3C2Cc2ccc(OC)c(OC)c2)cc1OC` (centres undefined), the concentration at half-maximal activity (AC50) (on Histamine H1 receptor; in assay [1]; in assay [2]; in assay [4]; in assay [5]) was above 30 µM throughout.
In the case of `O=C(O)COc1ccc(C(=O)c2cccs2)c(Cl)c1Cl`, at Androgen receptor, the AC50 is above 30 µM.
In the case of `COc1ccccc1Oc1c(NS(=O)(=O)c2ccc(C(C)(C)C)cc2)nc(-c2ncccn2)nc1OCCO` [BOSENTAN], the AC50 on Histamine H1 receptor is above 10 µM; in assay [1] it was above 10 µM; in assay [6], above 30 µM; in assay [5], above 30 µM.
With `CC(C(=O)O)c1ccc2c(c1)[nH]c1ccc(Cl)cc12` (centres undefined) [CARPROFEN], the half-maximal activity concentration (AC50) on Histamine H1 receptor is above 10 µM; in assay [1], above 10 µM; in assay [2] it was above 10 µM; in assay [4], above 10 µM; in assay [5], above 30 µM.
As to `CC[C@H](C)C[C@H](C)CCCCCCCCC(=O)N[C@H]1C[C@@H](O)[C@@H](NCCN)NC(=O)[C@@H]2[C@@H](O)CCN2C(=O)[C@H]([C@H](O)CCN)NC(=O)[C@H]([C@H](O)[C@@H](O)c2ccc(O)cc2)NC(=O)[C@@H]2C[C@@H](O)CN2C(=O)[C@H]([C@@H](C)O)NC1=O` [CASPOFUNGIN], the concentration at half-maximal activity (AC50) on Androgen receptor is above 30 µM.
Same read-out and setting: the figure for `C/C=C/C/C=C/CCC(=O)[C@H]1O[C@H]1C(N)=O` [CERULENIN] is above 30 µM.
`O=C1CN(/N=C/c2ccc(-c3ccc([N+](=O)[O-])cc3)o2)C(O)=N1` [DANTROLENE]: the AC50 is above 10 µM at Histamine H1 receptor; above 10 µM in assay [1]; above 10 µM in assay [2]; above 10 µM in assay [4]; above 30 µM in assay [5].
Consider `CC(C)N(CCC(C(N)=O)(c1ccccc1)c1ccccn1)C(C)C` (centres undefined) [DISOPYRAMIDE], for which the AC50 at Histamine H1 receptor was above 10 µM; in assay [1], above 10 µM; in assay [6] it was above 30 µM; in assay [5] it was above 30 µM.
`C[C@H]1c2cccc(O)c2C(=O)C2=C(O)[C@]3(O)C(=O)C(C(N)=O)=C(O)[C@@H](N(C)C)[C@@H]3[C@@H](O)[C@@H]21` [DOXYCYCLINE]: the AC50 in assay [6] was above 30 µM.
As for `C[C@]12C=CC(=O)N[C@@H]1CC[C@@H]1[C@@H]2CC[C@]2(C)[C@@H](C(=O)Nc3cc(C(F)(F)F)ccc3C(F)(F)F)CC[C@@H]12` [DUTASTERIDE], the half-maximal activity concentration (AC50) is above 10 µM at Histamine H1 receptor; above 10 µM in assay [1]; above 10 µM in assay [2]; above 10 µM in assay [4]; above 30 µM in assay [5].
Regarding `OC[C@H]1O[C@@H](c2ccc(Cl)c(Cc3ccc(O[C@H]4CCOC4)cc3)c2)[C@H](O)[C@@H](O)[C@@H]1O` [EMPAGLIFLOZIN], the half-maximal activity concentration (AC50) at Androgen receptor is above 30 µM.
The same measure, in the same setting: the figure for `CC(C)(O)CNc1nc(Nc2ccnc(C(F)(F)F)c2)nc(-c2cccc(C(F)(F)F)n2)n1` [ENASIDENIB] is above 30 µM.
With `CN(C)CCC[C@@]1(c2ccc(F)cc2)OCc2cc(C#N)ccc21` [ESCITALOPRAM], in assay [3], the half-maximal activity concentration (AC50) is above 30 µM.
In the case of `C#C[C@]1(O)CC[C@H]2[C@@H]3CCC4=CC(=O)CC[C@@H]4[C@H]3C(=C)C[C@@]21CC` [ETONOGESTREL], the AC50 (at Histamine H1 receptor; in assay [1]; in assay [2]; in assay [4]; in assay [5]) was above 30 µM in each case.
Regarding `CCc1nc(C(N)=O)c(Nc2ccc(N3CCC(N4CCN(C)CC4)CC3)c(OC)c2)nc1NC1CCOCC1` [GILTERITINIB], the half-maximal activity concentration (AC50) on Androgen receptor is above 30 µM.
In the case of `CC[C@H](c1ccc(O)cc1)[C@@H](CC)c1ccc(O)cc1` [HEXESTROL], the half-maximal activity concentration (AC50) at Androgen receptor stood at 6.95 µM.
Compound `CC(C)Cc1ccc(C(C)C(=O)O)cc1` (centres undefined) [IBUPROFEN] yielded an AC50 in assay [6] above 30 µM.
For the compound `OC[C@H]1O[C@@H](c2ccc(F)c(Cc3cc4ccccc4s3)c2)[C@H](O)[C@@H](O)[C@@H]1O` [IPRAGLIFLOZIN], the AC50 on Androgen receptor is above 30 µM.
The same measure, in the same setting: the figure for `CC(C)C[C@H](NC(=O)CNC(=O)c1cc(Cl)ccc1Cl)B(O)O` [IXAZOMIB] is above 30 µM.
With `CN(CC1(C)CCCO1)S(=O)(=O)c1ccc(Cl)c(S(N)(=O)=O)c1` (centres undefined) [MEFRUSIDE], the AC50 (on Histamine H1 receptor; in assay [1]; in assay [2]; in assay [3]; in assay [4]; in assay [5]) was above 30 µM each time.
Turning to `C[C@@H]1C[C@H]2[C@@H]3CCC4=CC(=O)C=C[C@]4(C)[C@@]3(Cl)[C@@H](O)C[C@]2(C)[C@@]1(OC(=O)c1ccco1)C(=O)CCl` [MOMETASONE FUROATE], the AC50 at Androgen receptor amounted to 0.0337 µM. This counts as double-digit nanomolar.
On to `CC(=O)O[C@]1(C(C)=O)CC[C@H]2[C@@H]3C=C(C)C4=CC(=O)CC[C@@H]4[C@H]3CC[C@@]21C` [NOMEGESTROL ACETATE], for which the concentration at half-maximal activity (AC50) was above 30 µM on Histamine H1 receptor; above 30 µM in assay [1]; above 30 µM in assay [2]; 0.02 µM on Androgen receptor; above 30 µM in assay [4]; above 30 µM in assay [5].
`O=C(O)c1cc(/N=N/c2ccc(O)c(C(=O)O)c2)ccc1O` [OLSALAZINE] showed an AC50 at Androgen receptor above 30 µM.
Same read-out and setting: the figure for `CCOC(=O)c1c(C)cc2c(CO)n[nH]c(=O)c2c1C` [OXAGRELATE] is above 30 µM; for `N#Cc1ccc2c(c1)N(CCCN1CCC(O)CC1)c1ccccc1S2` [PERICIAZINE] it is above 30 µM; for `FC(F)(F)c1ccc(CNc2ccc(Cc3c[nH]c4ncc(Cl)cc34)cn2)cn1` [PEXIDARTINIB] it is above 30 µM.
The compound `CN1CCC(=C2c3ccccc3Sc3ccccc32)CC1` [PIMETHIXENE] displayed an AC50 on Androgen receptor above 30 µM.
For the compound `C=C[C@H]1C[N@@]2CC[C@H]1C[C@@H]2[C@@H](O)c1ccnc2ccc(OC)cc12` [QUINIDINE], the AC50 was above 10 µM at Histamine H1 receptor, 6.5 µM in assay [1] and above 30 µM in assay [5].
`CC(CN1CC(=O)NC(=O)C1)N1CC(=O)NC(=O)C1` (centres undefined) [RAZOXANE]: the AC50 on Androgen receptor is above 30 µM.
`CO[C@H]1/C=C/O[C@@]2(C)Oc3c(C)c(O)c4c(O)c(c(/C=N/N5CCN(C)CC5)c(O)c4c3C2=O)NC(=O)/C(C)=C\C=C\[C@H](C)[C@H](O)[C@@H](C)[C@@H](O)[C@@H](C)[C@H](OC(C)=O)[C@@H]1C` [RIFAMPIN] returned an AC50 in assay [6] of 21.6 µM.
The same measure, in the same setting: the figure for `Nc1ccc(S(=O)(=O)Nc2nccs2)cc1` [SULFATHIAZOLE] is above 30 µM.
With `CCN(CC)CCNC(=O)c1c(C)[nH]c(/C=C2\C(=O)Nc3ccc(F)cc32)c1C` [SUNITINIB], half-maximal activity in assay [1] (AC50) was put at 4.37 µM.
Consider `CC(C)OC(=O)CCC/C=C\C[C@@H]1[C@@H](/C=C/C(F)(F)COc2ccccc2)[C@H](O)C[C@@H]1O` [TAFLUPROST], for which the AC50 at Androgen receptor was above 30 µM.
In assay [6], `COc1cc2nc(N3CCN(C(=O)C4CCCO4)CC3)nc(N)c2cc1OC` (centres undefined) [TERAZOSIN] had an AC50 above 30 µM.
In assay [6], `CCCC(CCC)C(=O)O` [VALPROIC ACID] showed a concentration at half-maximal activity (AC50) above 30 µM.
